Data: patent publication US9623062B2, “Anti-ageing activity of camphor in fibroblast cell line” (Jeju National University Industryacademic Cooperation …, priority 2014, dated 2017)

Experiments:
fibroblasts = assay: ROS production by DCFH-DA flow cytometry in fibroblasts; type: cell-based, human; conditions: for increase of ROS production compared to non-treated cells: fibroblasts, 24 hours after treatment, FIG. 4A
Protocol: To analyze the reactive oxygen species (ROS), the cells were seeded in 60 mm culture dishes at a density of 2×10^4 cells/mL, and then treated with 10% chamomile hydrosol for 0, 6, 12, and 24 hours. The cells were stained with 2′-7′-dichlorodihydrofluorescein diacetate (DCFH-DA) for 15 minutes, collected in a 15 mL tube, and then washed with PBS. The cells were re-suspended in 500 μl of PBS, and measured for a level of ROS. For the cell cycle analysis, the treated cells were harvested and fixed overnight in 70% ethanol at 4° C. After 24 hours, the cells were rehydrated in 2 mM EDTA-BPS with RNase A (25 ng/ml), and stained with PI (40 μg/ml). All the analyses were performed using a FACS Caliber flow cytometer (BD Biosciences), and each sample were analyzed by counting 10,000 cells.

[1] = test system: fibroblast cells (SA-β-gal); assay: Senescence-associated β-galactosidase activity in fibroblasts; type: cell-based, human
Protocol: Fibroblast cells were incubated in 6-well plate at a density of 1×10^4 cells/well. Then the culture supernatants were removed and the cells were treated 72 h with only camphor (260 μM) or H2O2 600 μM and 800 μM or co-treated camphor and H2O2 in fresh media; ethanol containing media and media only were used as negative controls. In some experiments, H2O2 was pretreated on fibroblast cells 72 h and replaced with or without camphor treatment (260 μM) 48 h. After treatment, cells were washed twice with PBS and fixed 10 minutes in 4% formaldehyde. Then, this was followed by washing 3 times with wash solution (100 mM Na2HPO4 set to pH 6 with 100 mM Citric Acid). Cells was incubated overnight at 37° C. in freshly made staining solution (5 mM K3Fe(CN)6, 5 mM K4Fe(CN)6, 2 mM MgCl2, 150 mM NaCl, 40 mM Na2HPO4, 1 mg/mL bromo-chloro-indolyl-galactopyranoside (X-Gal), set to pH 6 with 100 mM citric acid). Next day, cells was washed the staining solution with PBS and taken picture by microscope and β-galactosidase-positive cell number ratio was calculated.

[2] = test system: Primary dermal fibroblast cells; assay: MTT cell viability of fibroblasts; type: cell-based, human
Protocol: Fresh human foreskin specimens were obtained from 8 donors aged from 6 to 12 years, who received a routine circumcision procedure of Jeju National University Hospital, Korea. After being digested with 0.1% […] (Worthington Biochemical Corporation, Lakewood, N.J.) at 4° C. overnight, the epidermal layers were removed, and the remaining dermal parts were further digested with 0.1% collagenase I (Worthington) at 37° C. for another 4 h. The digested cells were then passed through a […] cell strainer (BD Biosciences, Mississauga, ON, Canada), centrifuged, and resuspended in high-glucose DMEM (Gibco, Invitrogen, Carlsbad, Calif.), supplemented with 10% FBS (Gibco, Invitrogen, Carlsbad, Calif.), 100 U/ml penicillin, and 100 μg/ml streptomycin (all from PAA Laboratories, Linz, Austria). Cells were seeded on tissue culture plates at 1×10^3 cells/cm2, and maintained at 37° C. with 5% CO2. After 24 h, the plates were washed with PBS to remove residual non-adherent cells. The resulting adherent cells were grown to confluence within 7 days. Primary dermal fibroblast (2×10^4 cells/ml) cells were plated in 96-well plates in 200 μl of medium containing 10% FBS. After 24 h, the cells were treated with different concentrations of chamomile hydrosol or camphor. […] Cell viability was determined from the absorbance at 570 nm, measured using a Sunrise microplate reader (Tecan, Salzburg, Austria). […]

[3] = test system: PI3K/AKT and MAPK signaling cascades; assay: Western blot of PI3K/AKT/ERK/4E-BP1 phosphorylation in fibroblasts; type: cell-based, human
Protocol: (§1) After 0, 6, 12, 24 h treatment, cells were collected and lysed in lysis buffer (100 mM Tris-Hcl [pH 8], 250 mM NaCl, 0.5% Nonidet P-40, and 1× protease inhibitor cocktail) and sonicated few times then kept on ice for 30 min. The cell lysates were centrifuged at 13,000 rpm for 30 min at 4° C. The supernatant were collected and determined the concentration by BCA™ Protein assay (Pierce, Rockford, Ill.). For detecting MMP 1 and collagen I, and collagen III, we collected the media and centrifuging 400×g for 1 h at 4° C. by using Amicon Ultra 10K and determined the concentration by Bradford assay. Aliquots of the lysated were separated by 10-15% SDS-PAGE, and transferred to PVDF membranes using a glycine transfer buffer (192 mM glycine, 25 mM Tris-HCl [pH 8.8], and 20% [v/v] methanol). After blocking with Skim milk 5% overnight at 4° C., the membrane were incubated with primary antibodies for 1 h RT or overnight at 4° C. and then for 1 h with secondary antibodies. Primary antibodies were diluted at ratio 1:1000 whereas the anti-β-actin primary and secondary antibodies (horseradish peroxidase-conjugated goat anti-mouse IgG) (Vector Laboratories, Burlingame, Calif.) were diluted at ratio 1:10,000. Protein bands were detected using the WEST-ZOL® plus Western Blot Detection System (iNtRON, Gyeonggi-do, Korea).

[4] = target: T1, porcine pancreatic elastase (PPE (Type IV)) (Sus scrofa, UniProt P00772); assay: Elastase assay; type: biochemical; conditions: camphor 0-3200 μM, n-Suc-(Ala)3-nitroanilide substrate, FIG. 5B
T1 construct: purchased Sigma
T1 sequence (P00772 27-266): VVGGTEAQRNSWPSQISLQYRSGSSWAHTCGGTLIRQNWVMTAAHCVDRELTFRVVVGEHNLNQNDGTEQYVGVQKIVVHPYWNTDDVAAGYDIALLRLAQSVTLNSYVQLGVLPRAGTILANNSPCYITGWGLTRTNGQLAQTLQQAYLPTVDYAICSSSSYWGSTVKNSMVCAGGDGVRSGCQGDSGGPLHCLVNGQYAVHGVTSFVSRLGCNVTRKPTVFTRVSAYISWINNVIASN
Protocol: The inhibition of different concentrations of camphor on porcine pancreatic elastase (PPE (Type IV), Sigma) activity was examined using n-Suc-(Ala)3-nitroanilide as the substrate, and the release of nitroaniline was measured at 410 nm. The reaction was carried out in a 200 mM Tris-HCl buffer (pH 8.0) containing 0.8 mM N-Suc-(Ala)3-nitroanilide and 5 μg/mL elastase. Different concentrations of camphor (0-3200 μM) were added to the reaction mixture to reach a final volume of 320 μl, and elastase inhibition was assessed in 96 well-plate reader at 25° C. The reaction mixture was pre-incubated for 10 minutes before addition of the substrate. The change in absorbance was measured at 410 nm using a 96-well reader. The percentage of elastase activities was calculated by the following equation: Enzyme activity (%)=100−[(B−A)/A]×100]
wherein A represents an absorbance at 410 nm without camphor, and B represents an absorbance at 410 nm with camphor.

Fibroblast cells = assay: Total collagen assay (Sircol); type: cell-based, human; conditions: cells treated with camphor vs non-treated control, FIG. 5C
Protocol: Total collagen was quantified in culture media using the Sircol Soluble Collagen Assay kit (Biocolor, Newtownabbey, Northern Ireland) by quantitative dye-binding method, according to the manufacturer's instruction. Fibroblast cells were seeded in 6-well culture plates at density 2×10^5 cells/well with 2 ml/well media with or without camphor (260 μM) and incubated for different time points (6 h, 12 h, 24 h). After treatment, 200 μl sample medium of each group was transferred to a 1.5 ml centrifuge tube and 1 ml Sircol dye reagent was added into each tube. The mixed contents were incubated at room temperature for 30 min. Then the tubes were centrifuged at 10000 g for 10 minutes. The supernatants were drained off and discarded. The remaining pellets were mixed with 1 ml Alkali reagent and gently mixed until the pellets dissolved completely. The solutions were transferred to a 96-well plate and read absorbance at 540 nm. A standard curve was made simultaneously by standard collagen stock solution (0.5 mg/m1).

[5] = test system: collagen types I, III and IV and collagenase MMP1; assay: Western blot of collagen types and MMP1; type: cell-based, human; conditions: camphor treatment
Protocol: as §1

| SMILES | increase of ROS production compared to non-treated cells (fibroblasts) | SA-β-gal-positive cells ([1]; H2O2 alone vs control, FIG. 5A) | cell viabilities enhanced by camphor when ROS scavenged by NAC ([2]; NAC pre-treatment, then camphor, FIG. 4C) | phosphorylation of PI3K, AKT, 4EBP1, and ERK increased by camphor, after NAC pre-treatment ([3]; NAC pre-treatment plus camphor, FIG. 4D) | camphor-induced ROS production after NAC pre-treatment (fibroblasts; fibroblasts pre-treated with NAC, then camphor 24 hours, FIG. 4B) | fibroblast viability ([2]; camphor from 32.25 μM to 260 μM, FIG. 3A) | phosphorylated forms of 4E-BP1 ([3]; fibroblasts treated with camphor, FIG. 3B) | phosphorylation of PI3K, AKT, and ERK ([3]; fibroblasts treated with camphor, time-dependent, FIG. 3B) | reversal of cellular senescence ([1]; cells pre-treated with H2O2 at 800 μM, then camphor) | SA-β-gal-positive cells ([1]; co-treatment of camphor with 600 and 800 μM H2O2, 72 h) | number of senescent cells ([1]; pre-treated with 600 μM H2O2 for 3 days, then camphor for 2 days) | elastase activity inhibition [4] | total volume of collagen (Fibroblast cells) | expression of MMP1 [5] | volume of collagen types III and IV ([5]; FIG. 5D) |
| --- | --- | --- | --- | --- | --- | --- | --- | --- | --- | --- | --- | --- | --- | --- | --- |
| OO [H2O2, reference compound] | 53% | dramatically induced SA-β-gal-positive cells |  |  |  |  |  |  |  |  |  |  |  |  |  |
| CC(=O)N[C@@H](CS)C(=O)O [NAC, N-acetyl-L-cysteine, reference compound] |  |  | decreased | reduced the phosphorylation | decreased the induced ROS production |  |  |  |  |  |  |  |  |  |  |
| CC1(C)C2CC[C@@]1(C)C(=O)C2 [camphor, (1R)-1,7,7-Trimethylbicyclo[2.2.1]heptan-2-one] | approximately 13% |  |  |  |  | increased the fibroblast viability | observed | increased the phosphorylation | did not significantly reverse the cellular senescence | reduced the SA-β-gal-positive cells | significantly decreased | inhibited the elastase activity in a concentration-dependent manner | increased | no change | increased |
